Data reported in US12077503B2, “Substituted cyclic amides and their use as herbicides” (FMC CORPORATION, priority 2015, dated 2024).

Columns and labels:
Format in all cases: in vivo
Kochia (Kochia scoparia) = assay: Test A preemergence; settings: Bassia scoparia, pre-emergence, 240 h, preemergence, 0 to 100 scale where 0 is no effect and 100 is complete control, read-out: Kochia plant response rating; for pest or weed control at 125 g/ha: 125 g ai/ha, visual injury rating, approximately 10 d; for pest or weed control at 500 g/ha: 500 g ai/ha
Method in brief: (§1)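 Compounds were formulated in a non-phytotoxic solvent mixture with surfactant and applied as a preemergence directed soil spray after seeding, or sprayed postemergence over plants 2 to 10 cm tall at the one- to two-leaf stage. Evaluation after about 10 d compared treated with untreated controls, using a scale from 0 (no effect) to 100 (complete control).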

[1] = test system: barnyardgrass (Echinochloa crus-galli); assay: Test A preemergence; settings: Echinochloa crus-galli, pre-emergence, 240 h, preemergence, 0 to 100 scale where 0 is no effect and 100 is complete control, read-out: Barnyardgrass plant response rating; for pest or weed control at 125 g/ha: 125 g ai/ha, visual injury rating, approximately 10 d; for pest or weed control at 500 g/ha: 500 g ai/ha
Method in brief: as §1

[2] = test system: giant foxtail (Setaria faberii); assay: Test A preemergence; settings: Setaria faberi, pre-emergence, 240 h, preemergence, 0 to 100 scale where 0 is no effect and 100 is complete control, read-out: Foxtail, Giant plant response rating; for pest or weed control at 125 g/ha: 125 g ai/ha, visual injury rating, approximately 10 d; for pest or weed control at 500 g/ha: 500 g ai/ha
Method in brief: as §1

[3] = test system: pigweed (Amaranthus retroflexus); assay: Test A preemergence; settings: Amaranthus retroflexus, pre-emergence, 240 h, preemergence, 0 to 100 scale where 0 is no effect and 100 is complete control, read-out: Pigweed plant response rating; for pest or weed control at 125 g/ha: 125 g ai/ha, visual injury rating, approximately 10 d; for pest or weed control at 500 g/ha: 500 g ai/ha
[4] = test system: ragweed (common ragweed, Ambrosia elatior); assay: Test A preemergence; settings: Ambrosia artemisiifolia, pre-emergence, 240 h, preemergence, 0 to 100 scale where 0 is no effect and 100 is complete control, read-out: Ragweed plant response rating; for pest or weed control at 125 g/ha: 125 g ai/ha, visual injury rating, approximately 10 d; for pest or weed control at 500 g/ha: 500 g ai/ha
Method in brief: as §1

[5] = test system: ryegrass, Italian (Italian ryegrass, Lolium multiflorum); assay: Test A preemergence; settings: Lolium multiflorum, pre-emergence, 240 h, preemergence, 0 to 100 scale where 0 is no effect and 100 is complete control, read-out: Ryegrass, Italian plant response rating; for pest or weed control at 125 g/ha: 125 g ai/ha, visual injury rating, approximately 10 d; for pest or weed control at 500 g/ha: 500 g ai/ha
Method in brief: as §1

[6] = test system: barnyardgrass (Echinochloa crus-galli); assay: Test A postemergence; settings: Echinochloa crus-galli, post-emergence, 240 h, postemergence; for pest or weed control at 125 g/ha: 125 g ai/ha, visual injury vs untreated controls after approx. 10 d, 0 = no effect, 100 = complete control, read-out: Barnyardgrass plant response rating (0 to 100 scale); for pest or weed control at 500 g/ha: 500 g ai/ha, 0 to 100 scale, 0 is no effect, 100 is complete control, read-out: Barnyardgrass plant response rating
Method in brief: as §1

[7] = test system: blackgrass (Alopecurus myosuroides); assay: Test A postemergence; settings: Alopecurus myosuroides, post-emergence, 240 h, postemergence; for pest or weed control at 125 g/ha: 125 g ai/ha, visual injury vs untreated controls after approx. 10 d, 0 = no effect, 100 = complete control, read-out: Blackgrass plant response rating (0 to 100 scale); for pest or weed control at 500 g/ha: 500 g ai/ha, 0 to 100 scale, 0 is no effect, 100 is complete control, read-out: Blackgrass plant response rating
Method in brief: as §1

[8] = test system: giant foxtail (Setaria faberii); assay: Test A postemergence; settings: Setaria faberi, post-emergence, 240 h, postemergence; for pest or weed control at 125 g/ha: 125 g ai/ha, visual injury vs untreated controls after approx. 10 d, 0 = no effect, 100 = complete control, read-out: Foxtail, Giant plant response rating (0 to 100 scale); for pest or weed control at 500 g/ha: 500 g ai/ha, 0 to 100 scale, 0 is no effect, 100 is complete control, read-out: Foxtail, Giant plant response rating
Method in brief: as §1

[9] = test system: ragweed (common ragweed, Ambrosia elatior); assay: Test A postemergence; settings: Ambrosia artemisiifolia, post-emergence, 240 h, postemergence; for pest or weed control at 125 g/ha: 125 g ai/ha, visual injury vs untreated controls after approx. 10 d, 0 = no effect, 100 = complete control, read-out: Ragweed plant response rating (0 to 100 scale); for pest or weed control at 500 g/ha: 500 g ai/ha, 0 to 100 scale, 0 is no effect, 100 is complete control, read-out: Ragweed plant response rating
Method in brief: as §1

[10] = test system: barnyardgrass (Echinochloa crus-galli); assay: Test B flooded paddy test; settings: Echinochloa crus-galli, 250 g ai/ha, Flood; 0 to 100 scale where 0 is no effect and 100 is complete control; read-out: Barnyardgrass plant response rating
Method in brief: (§2)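 Greenhouse paddy pots with 2-leaf stage plants received compound by direct addition to floodwater 3 cm deep, kept at that level. Scored visually at 13–15 d versus controls (0 no effect; 100 complete control).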

[11] = test system: ducksalad (Heteranthera limosa); assay: Test B flooded paddy test; settings: Heteranthera limosa, 250 g ai/ha, Flood; 0 to 100 scale where 0 is no effect and 100 is complete control; read-out: Ducksalad plant response rating
Method in brief: as §2

rice (Oryra sativa) = assay: Test B flooded paddy test; settings: Oryza sativa, 250 g ai/ha, Flood; 0 to 100 scale where 0 is no effect and 100 is complete control; read-out: Rice plant response rating
Method in brief: as §2

[12] = test system: sedge, umbrella (small-flower umbrella sedge, Cyperus difformis); assay: Test B flooded paddy test; settings: Cyperus difformis, 250 g ai/ha, Flood; 0 to 100 scale where 0 is no effect and 100 is complete control; read-out: Sedge, Umbrella plant response rating
Method in brief: as §2

Cc1ccc([C@H]2CCN(C)C(=O)[C@@H]2C(=O)Nc2ccccc2C(F)(F)F)cc1 [Compound 1219]
pest or weed control at 125 g/ha (Kochia (Kochia scoparia)): 0% | pest or weed control at 500 g/ha (Kochia (Kochia scoparia)): 0% | pest or weed control at 125 g/ha [1]: 70% | pest or weed control at 500 g/ha [1]: 90% | pest or weed control at 125 g/ha [2]: 80% | pest or weed control at 500 g/ha [2]: 90% | pest or weed control at 125 g/ha [3]: 0% | pest or weed control at 500 g/ha [3]: 0% | pest or weed control at 125 g/ha [4]: 0% | pest or weed control at 500 g/ha [4]: 0% | pest or weed control at 125 g/ha [5]: 0% | pest or weed control at 500 g/ha [5]: 0% | pest or weed control at 125 g/ha [6]: 30% | pest or weed control at 500 g/ha [6]: 60% | pest or weed control at 125 g/ha [7]: 0% | pest or weed control at 500 g/ha [7]: 0% | pest or weed control at 125 g/ha [8]: 50% | pest or weed control at 500 g/ha [8]: 80% | pest or weed control at 125 g/ha [9]: 0% | pest or weed control at 500 g/ha [9]: 20% | pest or weed control at 250 g/ha [10]: 0% | pest or weed control at 250 g/ha [11]: 60% | pest or weed control at 250 g/ha (rice (Oryra sativa)): 0% | pest or weed control at 250 g/ha [12]: 40%

Cc1ccc([C@H]2CCN(C)C(=O)[C@@H]2C(=O)Nc2cccc(Cl)c2F)cc1 [Compound 1223]
pest or weed control at 125 g/ha (Kochia (Kochia scoparia)): 0% | pest or weed control at 500 g/ha (Kochia (Kochia scoparia)): 20% | pest or weed control at 125 g/ha [1]: 90% | pest or weed control at 500 g/ha [1]: 90% | pest or weed control at 125 g/ha [2]: 90% | pest or weed control at 500 g/ha [2]: 90% | pest or weed control at 125 g/ha [3]: 0% | pest or weed control at 500 g/ha [3]: 0% | pest or weed control at 125 g/ha [4]: 0% | pest or weed control at 500 g/ha [4]: 20% | pest or weed control at 125 g/ha [5]: 0% | pest or weed control at 500 g/ha [5]: 0% | pest or weed control at 125 g/ha [6]: 30% | pest or weed control at 500 g/ha [6]: 50% | pest or weed control at 125 g/ha [7]: 30% | pest or weed control at 500 g/ha [7]: 50% | pest or weed control at 125 g/ha [8]: 90% | pest or weed control at 500 g/ha [8]: 90% | pest or weed control at 125 g/ha [9]: 0% | pest or weed control at 500 g/ha [9]: 20% | pest or weed control at 250 g/ha [10]: 80% | pest or weed control at 250 g/ha [11]: 90% | pest or weed control at 250 g/ha (rice (Oryra sativa)): 30% | pest or weed control at 250 g/ha [12]: 0%

Cc1cccc([C@H]2CN(C)C(=O)[C@@H]2C(=O)Nc2ccc(F)c(F)c2F)c1 [Compound 1231]
pest or weed control at 125 g/ha (Kochia (Kochia scoparia)): 70% | pest or weed control at 500 g/ha (Kochia (Kochia scoparia)): 90% | pest or weed control at 125 g/ha [1]: 90% | pest or weed control at 500 g/ha [1]: 90% | pest or weed control at 125 g/ha [2]: 90% | pest or weed control at 500 g/ha [2]: 90% | pest or weed control at 125 g/ha [3]: 40% | pest or weed control at 500 g/ha [3]: 70% | pest or weed control at 125 g/ha [4]: 30% | pest or weed control at 500 g/ha [4]: 60% | pest or weed control at 125 g/ha [5]: 40% | pest or weed control at 500 g/ha [5]: 90% | pest or weed control at 125 g/ha [6]: 80% | pest or weed control at 500 g/ha [6]: 80% | pest or weed control at 125 g/ha [7]: 0% | pest or weed control at 500 g/ha [7]: 40% | pest or weed control at 125 g/ha [8]: 80% | pest or weed control at 500 g/ha [8]: 90% | pest or weed control at 125 g/ha [9]: 0% | pest or weed control at 500 g/ha [9]: 30% | pest or weed control at 250 g/ha [10]: 85% | pest or weed control at 250 g/ha [11]: 100% | pest or weed control at 250 g/ha (rice (Oryra sativa)): 0% | pest or weed control at 250 g/ha [12]: 0%

Cc1cccc([C@H]2CN(C)C(=O)[C@@H]2C(=O)Nc2cccc(F)c2C)c1 [Compound 1233]
pest or weed control at 125 g/ha (Kochia (Kochia scoparia)): 70% | pest or weed control at 500 g/ha (Kochia (Kochia scoparia)): 70% | pest or weed control at 125 g/ha [1]: 90% | pest or weed control at 500 g/ha [1]: 90% | pest or weed control at 125 g/ha [2]: 90% | pest or weed control at 500 g/ha [2]: 90% | pest or weed control at 125 g/ha [3]: 40% | pest or weed control at 500 g/ha [3]: 40% | pest or weed control at 125 g/ha [4]: 30% | pest or weed control at 500 g/ha [4]: 50% | pest or weed control at 125 g/ha [5]: 40% | pest or weed control at 500 g/ha [5]: 70% | pest or weed control at 125 g/ha [6]: 80% | pest or weed control at 500 g/ha [6]: 80% | pest or weed control at 125 g/ha [7]: 0% | pest or weed control at 500 g/ha [7]: 40% | pest or weed control at 125 g/ha [8]: 80% | pest or weed control at 500 g/ha [8]: 90% | pest or weed control at 125 g/ha [9]: 0% | pest or weed control at 500 g/ha [9]: 30% | pest or weed control at 250 g/ha [10]: 80% | pest or weed control at 250 g/ha [11]: 100% | pest or weed control at 250 g/ha (rice (Oryra sativa)): 15% | pest or weed control at 250 g/ha [12]: 0%
